Reference: patent US20250026765A1, “SPIROHETEROCYCLE DERIVATIVE HAVING SEROTONIN RECEPTOR BINDING ACTIVITY” (Shionogi & Co., Ltd., priority 2021, published 2025)
Read-outs that look alike come from different tables or passages of the source.

Experiments:
[1] = target: human recombinant 5-HT2A receptor (Homo sapiens (Human), UniProt P28223); test: 5-HT2A receptor binding inhibition test ([3H]-Ketanserin); conditions: Jump-In HEK cell membrane, 25° C. 1.5 hours
In short: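 Membranes from Jump-In HEK cells expressing the receptor were incubated with [3H]-ketanserin at about its Kd (from Scatchard analysis) in Tris-HCl pH 7.4 buffer for 1.5 h at 25° C, then filtered and counted. Non-specific binding was defined with 500 μmol/L serotonin, and Ki was taken from dose-response curves.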

[2] = target: human ether-a-go-go related gene (hERG) channel (Homo sapiens (Human), UniProt Q12809); test: hERG test (FluxOR II potassium channel assay, FLIPR); format: cell-based; conditions: CHO cells expressing hERG channel, thallium flux fluorescence, 10 minutes
Description: Test Example 3: hERG Test
For the purpose of evaluating risk of an electrocardiogram QT interval prolongation of the compound of the present invention, effects of the compound are studied by evaluating the activity of potassium channel using CHO cells expressing human ether-a-go-go related gene (hERG) channel.
Evaluation is performed using a FluxORII Green Potassium IonCgannel Assay kit
(Invitrogen: Molecular Probes).
Cells are seeded in a 384-assay plate (8000 cells/well/40 μL) and incubated (37° C., […] overnight. After replacing the medium with a Wash buffer (1×HBSS, 20 mM HEPES) with a microplate washer, a fluorescent indicator is added to the medium and allowed to incubate (37° C., 5% CO2) for 1 hour for incorporation of the fluorescent indicator into cells.
A cell plate is placed on a cell-based kinetic assay system FLIPR (Molecular Devices, LLC.), and the compound is added to the cells so as to have a desired concentration and reacted for 10 minutes. When a mixed solution of potassium and thallium as a stimulator is added thereto, the potassium channel is opened, and thallium that flowed into the cells binds to the fluorescent indicator, so that the intracellular fluorescence signal increases, and the potassium channel current is detected as a fluorescence signal. For the inhibition rate at each concentration, the signal intensity when E-4031 is added to cells at a final concentration of 10.3 μmol/L is defined as an inhibition rate of 100%, and the signal intensity when DMSO is added to cells at a final concentration of 0.5% is defined as an inhibition rate of 0%. Then, the inhibition rate is calculated from the signal intensity at each concentration. IC50 is calculated from the inhibition rate at each concentration.

[3] = read-out: human serotonin 5-HT2A receptor binding activity Ki

human recombinant 5-HT2A receptor, sequence (P28223 whole entry): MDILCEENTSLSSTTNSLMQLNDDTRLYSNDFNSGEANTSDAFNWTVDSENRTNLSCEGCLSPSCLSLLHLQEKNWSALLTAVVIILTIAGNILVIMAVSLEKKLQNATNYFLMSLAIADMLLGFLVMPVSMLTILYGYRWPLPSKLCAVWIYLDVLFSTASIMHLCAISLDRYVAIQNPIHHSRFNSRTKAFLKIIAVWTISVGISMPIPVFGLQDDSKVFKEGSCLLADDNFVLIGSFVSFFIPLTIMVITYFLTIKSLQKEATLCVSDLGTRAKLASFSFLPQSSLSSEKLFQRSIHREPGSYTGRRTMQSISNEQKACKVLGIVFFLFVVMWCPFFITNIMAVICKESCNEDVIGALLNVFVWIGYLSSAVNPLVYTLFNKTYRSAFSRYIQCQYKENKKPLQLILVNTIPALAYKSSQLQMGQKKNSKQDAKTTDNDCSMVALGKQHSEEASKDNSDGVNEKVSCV
human ether-a-go-go related gene (hERG) channel, sequence (Q12809 whole entry): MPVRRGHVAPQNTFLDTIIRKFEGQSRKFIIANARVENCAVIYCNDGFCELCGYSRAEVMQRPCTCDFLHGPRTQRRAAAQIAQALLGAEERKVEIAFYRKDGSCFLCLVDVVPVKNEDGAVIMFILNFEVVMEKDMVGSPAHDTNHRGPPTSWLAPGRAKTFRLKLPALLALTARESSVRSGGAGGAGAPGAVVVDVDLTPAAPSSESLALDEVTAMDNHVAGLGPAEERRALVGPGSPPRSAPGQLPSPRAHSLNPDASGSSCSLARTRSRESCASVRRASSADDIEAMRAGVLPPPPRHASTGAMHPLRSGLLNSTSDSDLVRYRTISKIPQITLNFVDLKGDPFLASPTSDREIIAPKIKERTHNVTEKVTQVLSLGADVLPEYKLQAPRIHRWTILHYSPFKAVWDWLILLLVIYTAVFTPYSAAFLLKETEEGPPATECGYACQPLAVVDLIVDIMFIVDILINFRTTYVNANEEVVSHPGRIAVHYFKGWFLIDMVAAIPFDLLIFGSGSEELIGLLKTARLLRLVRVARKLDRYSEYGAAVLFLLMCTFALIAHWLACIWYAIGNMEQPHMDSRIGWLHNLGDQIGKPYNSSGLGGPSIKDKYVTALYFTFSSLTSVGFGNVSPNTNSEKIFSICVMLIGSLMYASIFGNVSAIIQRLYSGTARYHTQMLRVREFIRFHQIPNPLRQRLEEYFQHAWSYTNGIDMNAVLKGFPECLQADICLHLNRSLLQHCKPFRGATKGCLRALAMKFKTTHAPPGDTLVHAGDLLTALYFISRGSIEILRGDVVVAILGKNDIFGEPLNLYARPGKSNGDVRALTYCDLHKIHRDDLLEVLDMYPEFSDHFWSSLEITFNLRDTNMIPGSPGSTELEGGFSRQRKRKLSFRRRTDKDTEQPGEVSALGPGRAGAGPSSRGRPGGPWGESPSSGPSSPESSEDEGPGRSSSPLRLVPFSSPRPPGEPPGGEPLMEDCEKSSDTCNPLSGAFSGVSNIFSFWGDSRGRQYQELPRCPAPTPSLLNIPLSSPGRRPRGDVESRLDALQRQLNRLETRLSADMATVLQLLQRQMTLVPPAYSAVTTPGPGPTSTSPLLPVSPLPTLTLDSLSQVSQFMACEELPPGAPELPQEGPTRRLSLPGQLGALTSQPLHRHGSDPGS

SMILES	Ki [1, 3]	Ki ([1]; read-out: h-5-HT2A Ki)	IC50 [2]
CC(C)COc1ccc(CN(Cc2coc(CF)n2)C2=NOC3(CCN(C)CC3)N2)cc1 [Compound I-067]	1.37 nM	< 10 nM	16300 nM
CCCCOc1ccc(CN(Cc2coc(C)n2)C2=NOC3(CCN(C)CC3)N2)cc1 [Compound I-080]	0.823 nM	< 10 nM	> 52000 nM
Cc1nc(CN(Cc2ccc(OCC(F)(F)C(F)(F)F)cc2F)C2=NOC3(CCN(C)CC3)N2)co1 [Compound I-104]	1.56 nM	–	20600 nM
CCCCOc1ccc(CN(Cc2cnn(C)n2)C2=NOC3(CCN(C)CC3)N2)cc1 [Compound I-113]	1.2 nM	–	> 52000 nM
Cc1nc(CN(Cc2ccc(CCC(F)(F)F)cc2)C2=NOC3(CCN(C)CC3)N2)co1 [Compound I-125]	1.26 nM	–	20000 nM
Cc1nc(CN(Cc2ccc(OCC(C)C)cc2F)C2=NOC3(CCN(C)CC3)N2)co1 [Compound I-128]	1.36 nM	–	> 52000 nM

More lines, main results first:

Ki [1, 3]	SMILES	Ki ([1]; read-out: h-5-HT2A Ki)	IC50 [2]
0.979 nM	CCCCOc1ccc(CN(Cc2coc(CF)n2)C2=NOC3(CCN(C)CC3)N2)cc1 [Compound I-105]	–	17900 nM
0.74 nM	CCCCOc1ccc(CN(Cc2coc(C)n2)C2=NOC3(CCN(C)CC3)N2)c(F)c1 [Compound I-114]	–	> 52000 nM
0.703 nM	CCCCOc1ccc(CN(Cc2coc(C)n2)C2=NOC3(CCN(C)CC3)N2)cc1F [Compound I-115]	–	> 52000 nM
